# Source: patent US20240158446A1, “CYCLIC COMPOUND HAVING SELECTIVE INHIBITORY ACTION ON KRAS OVER HRAS AND NRAS” (CHUGAI SEIYAKU KABUSHIKI KAISHA, priority 2021, published 2024)
# Like-named read-outs stand apart in the source and are kept apart here. Where a SMILES comes first, the peptide text is derived from it. Bridges are numbered along the chain shown (N, C = ends). [ ]: non-standard residue; d: D form. hPhe(3,5-F2-4-CF3) = N[C@@H](CCc1cc(F)c(C(F)(F)F)c(F)c1)C(=O)O; NPrPhe(4-CF3) = CCCN[C@@H](Cc1ccc(C(F)(F)F)cc1)C(=O)O; NMeGly(cPent) = CN[C@H](C(=O)O)C1CCCC1; NMeD = CN[C@@H](CC(=O)O)C(=O)O; NMeL = CN[C@@H](CC(C)C)C(=O)O; Iva = CC[C@](C)(N)C(=O)O; Sar = CNCC(=O)O
# Legend:
# [1] = target: GDP-bound KRAS wild-type protein (Homo sapiens, UniProt P01116); assay: Binding to KRAS by surface plasmon resonance (SPR), Single Cycle Kinetics; details: GDP-bound KRAS wild-type protein, read-out: KRAS KD
# GDP-bound KRAS wild-type protein, sequence (P01116 whole entry): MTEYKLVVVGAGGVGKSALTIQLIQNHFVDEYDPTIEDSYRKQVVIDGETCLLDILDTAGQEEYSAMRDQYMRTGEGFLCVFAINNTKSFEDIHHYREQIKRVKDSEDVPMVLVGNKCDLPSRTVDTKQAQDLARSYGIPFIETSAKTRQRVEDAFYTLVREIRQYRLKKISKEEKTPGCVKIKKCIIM
# [2] = target: GDP-bound HRAS wild-type protein (Homo sapiens, UniProt P01112); assay: Binding to HRAS by surface plasmon resonance (SPR), Single Cycle Kinetics; details: SPR, GDP-bound HRAS wild-type protein vs GDP-bound KRAS wild-type protein
# GDP-bound HRAS wild-type protein, sequence (P01112 whole entry): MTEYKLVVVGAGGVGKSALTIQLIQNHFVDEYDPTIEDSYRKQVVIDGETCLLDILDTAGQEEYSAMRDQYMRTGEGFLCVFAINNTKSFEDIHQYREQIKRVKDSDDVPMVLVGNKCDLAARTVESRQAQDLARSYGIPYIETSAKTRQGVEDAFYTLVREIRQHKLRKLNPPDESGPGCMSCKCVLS
# [3] = target: GDP-bound NRAS wild-type protein (Homo sapiens, UniProt P01111); assay: Binding to NRAS by surface plasmon resonance (SPR), Single Cycle Kinetics; details: SPR, GDP-bound NRAS wild-type protein vs GDP-bound KRAS wild-type protein
# GDP-bound NRAS wild-type protein, sequence (P01111 whole entry): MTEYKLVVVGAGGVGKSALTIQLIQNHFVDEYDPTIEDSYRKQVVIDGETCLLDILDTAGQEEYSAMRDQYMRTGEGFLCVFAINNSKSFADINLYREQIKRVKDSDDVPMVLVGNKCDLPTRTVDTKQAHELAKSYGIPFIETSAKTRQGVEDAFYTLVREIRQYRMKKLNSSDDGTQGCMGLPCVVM
# [4] = SPR Single Cycle Kinetics, 1:1 binding model
smiles,measurement,setting,value
"CCCN1C(=O)CN(C)C(=O)CN(C)C(=O)[C@H]([C@@H](C)CC)NC(=O)[C@H](CC(C)C)N(C)C(=O)C[C@@H](C(=O)N(C)C)N(C)C(=O)[C@H](C2CCCC2)N(C)C(=O)[C@](C)(CC)NC(=O)[C@@H]2CCCN2C(=O)[C@H](CCc2cc(F)c(C(F)(F)F)c(F)c2)NC(=O)CN(C)C(=O)[C@@H]1Cc1ccc(C(F)(F)F)cc1 [PP0805] ([NMeL]I[Sar][Sar][NPrPhe(4-CF3)][Sar][hPhe(3,5-F2-4-CF3)]P[Iva][NMeGly(cPent)][NMeD]-NMe2; lactam N-11)",Kd,[1]; [4],0.16 nM
same,HRAS/KRAS (ratio of KD value with respect to HRAS to KD value with respect to KRAS),[2],C (A compound having a KD ratio of 0.1 or more and less than 3 is denoted as C)
same,NRAS/KRAS (ratio of KD value with respect to NRAS to KD value with respect to KRAS),[3],B (a compound having 3 or more and less than 10 is denoted as B)
CCO[C@@H]1C[C@H]2C(=O)NC3(CCC3)C(=O)N(C)[C@@H](C3CCCC3)C(=O)N(C)[C@H](C(=O)N3CCOCC3)CC(=O)N(C)[C@@H](CC(C)C)C(=O)N[C@@H](C3CC(F)(F)C3)C(=O)N(C)CC(=O)N(C)[C@H]3CCCCN(C3=O)[C@@H](Cc3ccc(C(F)(F)F)cc3)C(=O)N(C)CC(=O)N[C@@H](CCc3cc(F)c(C(F)(F)F)c(F)c3)C(=O)N2C1 [PP0807],Kd,[1]; [4],0.059 nM
same,HRAS/KRAS (ratio of KD value with respect to HRAS to KD value with respect to KRAS),[2],B (a compound having 3 or more and less than 10 is denoted as B)
same,NRAS/KRAS (ratio of KD value with respect to NRAS to KD value with respect to KRAS),[3],B (a compound having 3 or more and less than 10 is denoted as B)
CC[C@H](C)[C@@H]1NC(=O)[C@H](CC(C)C)N(C)C(=O)C[C@@H](C(=O)N2CCOCC2)N(C)C(=O)[C@H](C2CCCC2)N(C)C(=O)C2(CCC2)NC(=O)[C@]2(C)CCCN2C(=O)[C@H](CCc2cc(F)c(C(F)(F)F)c(F)c2)NC(=O)CN(C)C(=O)[C@H](Cc2ccc(C(F)(F)F)cc2)N2CCCC[C@@H](C2=O)N(C)C(=O)CN(C)C1=O [PP0808],Kd,[1]; [4],0.027 nM
same,HRAS/KRAS (ratio of KD value with respect to HRAS to KD value with respect to KRAS),[2],B (a compound having 3 or more and less than 10 is denoted as B)
same,NRAS/KRAS (ratio of KD value with respect to NRAS to KD value with respect to KRAS),[3],B (a compound having 3 or more and less than 10 is denoted as B)
CC[C@H](C)[C@@H]1NC(=O)[C@H](CC(C)C)N(C)C(=O)C[C@@H](C(=O)N2CCOCC2)N(C)C(=O)[C@H](C2CCCC2)N(C)C(=O)C2(CCC2)NC(=O)[C@@H]2C[C@@H](C(F)(F)F)CN2C(=O)[C@H](CCc2cc(F)c(C(F)(F)F)c(F)c2)NC(=O)CN(C)C(=O)[C@H](Cc2ccc(C(F)(F)F)cc2)N2CCCC[C@@H](C2=O)N(C)C(=O)CN(C)C1=O [PP0809],Kd,[1]; [4],0.027 nM
same,HRAS/KRAS (ratio of KD value with respect to HRAS to KD value with respect to KRAS),[2],B (a compound having 3 or more and less than 10 is denoted as B)
same,NRAS/KRAS (ratio of KD value with respect to NRAS to KD value with respect to KRAS),[3],B (a compound having 3 or more and less than 10 is denoted as B)
CC[C@H](C)[C@@H]1NC(=O)[C@H](CC(C)C)N(C)C(=O)C[C@@H](C(=O)N2CCOCC2)N(C)C(=O)[C@H](C2CCCC2)N(C)C(=O)C2(CCC2)NC(=O)[C@@H]2[C@H]3C[C@H]3CN2C(=O)[C@H](CCc2cc(F)c(C(F)(F)F)c(F)c2)NC(=O)CN(C)C(=O)[C@H](Cc2ccc(C(F)(F)F)cc2)N2CCCC[C@@H](C2=O)N(C)C(=O)CN(C)C1=O [PP0810],Kd,"[1]; SPR, Single Cycle Kinetics",0.04 nM
same,HRAS/KRAS (ratio of KD value for HRAS to KD value for KRAS),[2],B (a compound having 3 or more and less than 10 is denoted as B)
same,NRAS/KRAS (ratio of KD value for NRAS to KD value for KRAS),[3],B (a compound having 3 or more and less than 10 is denoted as B)
CCO[C@@H]1C[C@H]2C(=O)NC3(CCC3)C(=O)N(C)[C@@H](C(CC)CC)C(=O)N(C)[C@H](C(=O)N3CCOCC3)CC(=O)N(C)[C@@H](CC(C)C)C(=O)N[C@@H]([C@@H](C)CC)C(=O)N(C)CC(=O)N(C)[C@H]3CCCCN(C3=O)[C@@H](Cc3ccc(C(F)(F)F)cc3)C(=O)N(C)CC(=O)N[C@@H](CCc3cc(F)c(C(F)(F)F)c(F)c3)C(=O)N2C1 [PP0811],Kd,"[1]; SPR, Single Cycle Kinetics",0.083 nM
same,HRAS/KRAS (ratio of KD value for HRAS to KD value for KRAS),[2],B (a compound having 3 or more and less than 10 is denoted as B)
same,NRAS/KRAS (ratio of KD value for NRAS to KD value for KRAS),[3],B (a compound having 3 or more and less than 10 is denoted as B)
CCO[C@@H]1C[C@H]2C(=O)NC3(CCC3)C(=O)N(C)[C@@H](CC(F)F)C(=O)N(C)[C@H](C(=O)N3CCOCC3)CC(=O)N(C)[C@@H](CC(C)C)C(=O)N[C@@H]([C@@H](C)CC)C(=O)N(C)CC(=O)N(C)[C@H]3CCCCN(C3=O)[C@@H](Cc3ccc(C(F)(F)F)cc3)C(=O)N(C)CC(=O)N[C@@H](CCc3cc(F)c(C(F)(F)F)c(F)c3)C(=O)N2C1 [PP0813],Kd,"[1]; SPR, Single Cycle Kinetics",0.4 nM
same,HRAS/KRAS (ratio of KD value for HRAS to KD value for KRAS),[2],B (a compound having 3 or more and less than 10 is denoted as B)
same,NRAS/KRAS (ratio of KD value for NRAS to KD value for KRAS),[3],C (A compound having a KD ratio of 0.1 or more and less than 3 is denoted as C)
